Test results reported in ChEMBL document CHEMBL1144455, “A small molecule-kinase interaction map for clinical kinase inhibitors” (Nat Biotechnol, 2005).

Tests used:
[1] = target: Mitogen-activated protein kinase 11 (Homo sapiens, UniProt Q15759)
[2] = target: Death-associated protein kinase 3 (Homo sapiens, UniProt O43293)
[3] = target: 5'-AMP-activated protein kinase catalytic subunit alpha-1 (Homo sapiens, UniProt Q13131)
[4] = target: T1, Serine/threonine-protein kinase 4 (Homo sapiens, UniProt Q13043)
T1 sequence (Q13043 whole entry): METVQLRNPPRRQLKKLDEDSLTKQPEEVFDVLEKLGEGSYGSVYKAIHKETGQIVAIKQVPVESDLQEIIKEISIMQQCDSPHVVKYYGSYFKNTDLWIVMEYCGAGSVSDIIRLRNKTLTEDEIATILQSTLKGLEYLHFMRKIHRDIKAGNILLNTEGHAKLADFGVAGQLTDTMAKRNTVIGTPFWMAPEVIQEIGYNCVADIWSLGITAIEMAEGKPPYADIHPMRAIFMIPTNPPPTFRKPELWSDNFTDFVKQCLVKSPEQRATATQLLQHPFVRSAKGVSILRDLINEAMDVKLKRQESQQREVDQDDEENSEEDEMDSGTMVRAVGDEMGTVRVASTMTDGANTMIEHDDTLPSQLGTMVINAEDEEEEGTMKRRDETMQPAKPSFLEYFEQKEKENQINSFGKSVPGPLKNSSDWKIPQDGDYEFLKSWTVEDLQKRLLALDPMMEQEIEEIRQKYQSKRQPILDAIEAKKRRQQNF

Insulin receptor = Insulin receptor (Homo sapiens, UniProt P06213)
Chain of Insulin receptor (P06213 28-758 limits assumed): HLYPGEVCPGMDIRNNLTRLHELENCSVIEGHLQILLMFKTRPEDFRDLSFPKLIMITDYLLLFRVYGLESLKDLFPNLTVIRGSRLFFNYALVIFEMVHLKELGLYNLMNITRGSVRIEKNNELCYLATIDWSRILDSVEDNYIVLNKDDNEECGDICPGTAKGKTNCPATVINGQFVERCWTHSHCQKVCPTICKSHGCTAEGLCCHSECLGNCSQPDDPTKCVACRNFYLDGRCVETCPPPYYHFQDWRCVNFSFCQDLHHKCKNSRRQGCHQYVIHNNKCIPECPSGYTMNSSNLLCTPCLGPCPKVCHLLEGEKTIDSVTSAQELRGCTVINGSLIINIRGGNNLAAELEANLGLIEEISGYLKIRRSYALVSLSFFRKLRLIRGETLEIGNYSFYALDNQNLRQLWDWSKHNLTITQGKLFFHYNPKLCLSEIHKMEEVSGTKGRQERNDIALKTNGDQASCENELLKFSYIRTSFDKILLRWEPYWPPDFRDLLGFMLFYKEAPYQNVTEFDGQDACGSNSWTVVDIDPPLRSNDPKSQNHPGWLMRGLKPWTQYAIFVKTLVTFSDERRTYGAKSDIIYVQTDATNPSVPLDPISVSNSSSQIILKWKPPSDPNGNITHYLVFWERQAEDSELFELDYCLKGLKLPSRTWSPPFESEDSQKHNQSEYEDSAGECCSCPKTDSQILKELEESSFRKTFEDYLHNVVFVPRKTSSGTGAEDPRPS
Chain of Insulin receptor (P06213 763-1382 limits assumed): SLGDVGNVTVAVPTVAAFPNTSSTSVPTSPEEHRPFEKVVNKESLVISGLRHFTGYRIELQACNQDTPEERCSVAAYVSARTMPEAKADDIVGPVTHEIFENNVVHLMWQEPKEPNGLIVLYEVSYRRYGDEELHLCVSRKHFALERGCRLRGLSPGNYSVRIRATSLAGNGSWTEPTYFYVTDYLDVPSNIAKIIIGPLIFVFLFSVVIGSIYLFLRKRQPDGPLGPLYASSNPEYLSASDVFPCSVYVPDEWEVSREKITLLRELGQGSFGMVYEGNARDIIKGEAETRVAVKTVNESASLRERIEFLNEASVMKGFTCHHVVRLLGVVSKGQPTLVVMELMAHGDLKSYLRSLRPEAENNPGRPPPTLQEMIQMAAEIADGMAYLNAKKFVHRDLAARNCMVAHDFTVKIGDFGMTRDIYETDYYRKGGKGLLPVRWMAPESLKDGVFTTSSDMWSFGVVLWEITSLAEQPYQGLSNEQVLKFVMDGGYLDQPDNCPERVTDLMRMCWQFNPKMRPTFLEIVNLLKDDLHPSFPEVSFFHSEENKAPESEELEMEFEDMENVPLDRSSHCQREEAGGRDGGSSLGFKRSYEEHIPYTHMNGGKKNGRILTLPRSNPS

[5] = target: Calcium/calmodulin-dependent protein kinase kinase 1 (Homo sapiens, UniProt Q8N5S9)
[6] = target: Dual specificity protein kinase CLK3 (Homo sapiens, UniProt P49761)
[7] = target: Vascular endothelial growth factor receptor 3 (Homo sapiens, UniProt P35916)
Chain of Vascular endothelial growth factor receptor 3 (P35916 whole entry): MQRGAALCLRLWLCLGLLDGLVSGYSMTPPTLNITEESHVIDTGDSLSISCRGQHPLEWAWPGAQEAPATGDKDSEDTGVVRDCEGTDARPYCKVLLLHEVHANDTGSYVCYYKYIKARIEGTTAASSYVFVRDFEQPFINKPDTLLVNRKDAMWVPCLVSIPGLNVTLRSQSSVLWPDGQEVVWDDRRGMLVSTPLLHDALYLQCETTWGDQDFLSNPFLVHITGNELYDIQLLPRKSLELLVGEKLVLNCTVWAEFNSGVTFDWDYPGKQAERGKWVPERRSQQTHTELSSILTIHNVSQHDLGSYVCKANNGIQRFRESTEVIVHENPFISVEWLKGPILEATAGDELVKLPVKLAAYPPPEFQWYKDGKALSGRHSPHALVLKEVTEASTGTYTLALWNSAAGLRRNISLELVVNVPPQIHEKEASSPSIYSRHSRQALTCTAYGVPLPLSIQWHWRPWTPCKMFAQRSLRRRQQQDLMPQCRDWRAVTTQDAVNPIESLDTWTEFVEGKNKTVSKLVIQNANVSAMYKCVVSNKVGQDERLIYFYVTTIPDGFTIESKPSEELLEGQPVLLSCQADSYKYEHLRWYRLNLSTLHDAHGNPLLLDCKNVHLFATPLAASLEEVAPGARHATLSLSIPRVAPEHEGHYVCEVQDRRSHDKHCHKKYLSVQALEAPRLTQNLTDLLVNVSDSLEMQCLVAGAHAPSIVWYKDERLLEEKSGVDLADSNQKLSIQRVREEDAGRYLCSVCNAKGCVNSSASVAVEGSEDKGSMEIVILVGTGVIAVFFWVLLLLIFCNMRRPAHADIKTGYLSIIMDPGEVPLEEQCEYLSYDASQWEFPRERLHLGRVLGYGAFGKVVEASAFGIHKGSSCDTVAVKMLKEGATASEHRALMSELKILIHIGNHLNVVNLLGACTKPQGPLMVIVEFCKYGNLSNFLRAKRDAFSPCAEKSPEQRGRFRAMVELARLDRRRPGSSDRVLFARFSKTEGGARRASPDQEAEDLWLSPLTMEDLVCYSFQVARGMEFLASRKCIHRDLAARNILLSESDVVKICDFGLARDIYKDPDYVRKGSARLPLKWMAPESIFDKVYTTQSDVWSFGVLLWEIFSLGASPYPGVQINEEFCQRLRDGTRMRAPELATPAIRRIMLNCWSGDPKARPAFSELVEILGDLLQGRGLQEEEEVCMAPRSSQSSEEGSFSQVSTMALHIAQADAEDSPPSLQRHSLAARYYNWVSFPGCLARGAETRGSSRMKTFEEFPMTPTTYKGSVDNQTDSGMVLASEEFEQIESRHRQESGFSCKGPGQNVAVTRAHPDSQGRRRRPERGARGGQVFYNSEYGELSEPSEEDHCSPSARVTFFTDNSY

[8] = target: Tyrosine-protein kinase Fyn (Homo sapiens, UniProt P06241)
[9] = target: Fibroblast growth factor receptor 3 (Homo sapiens, UniProt P22607)
Chain of Fibroblast growth factor receptor 3 (P22607 whole entry): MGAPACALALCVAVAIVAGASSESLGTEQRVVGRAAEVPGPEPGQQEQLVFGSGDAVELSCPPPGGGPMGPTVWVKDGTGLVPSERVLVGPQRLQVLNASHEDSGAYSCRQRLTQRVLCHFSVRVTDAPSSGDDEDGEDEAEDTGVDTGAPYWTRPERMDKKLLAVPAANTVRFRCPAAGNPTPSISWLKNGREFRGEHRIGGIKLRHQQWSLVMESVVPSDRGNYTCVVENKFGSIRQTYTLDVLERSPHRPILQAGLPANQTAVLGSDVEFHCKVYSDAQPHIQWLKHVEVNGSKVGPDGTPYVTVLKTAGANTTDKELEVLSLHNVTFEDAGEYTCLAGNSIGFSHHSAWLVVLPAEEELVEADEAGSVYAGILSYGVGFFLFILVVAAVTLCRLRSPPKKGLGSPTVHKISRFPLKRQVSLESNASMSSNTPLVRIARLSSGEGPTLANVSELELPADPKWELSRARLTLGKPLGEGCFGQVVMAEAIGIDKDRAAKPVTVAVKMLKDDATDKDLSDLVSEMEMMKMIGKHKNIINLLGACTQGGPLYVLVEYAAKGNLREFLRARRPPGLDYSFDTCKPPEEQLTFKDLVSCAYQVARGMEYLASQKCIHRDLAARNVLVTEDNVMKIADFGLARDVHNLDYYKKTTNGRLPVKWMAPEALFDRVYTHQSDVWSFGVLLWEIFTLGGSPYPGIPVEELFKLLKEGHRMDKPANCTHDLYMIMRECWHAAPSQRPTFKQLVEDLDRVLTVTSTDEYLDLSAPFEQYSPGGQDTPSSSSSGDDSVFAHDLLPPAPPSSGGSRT

[10] = target: Serine/threonine-protein kinase 10 (Homo sapiens, UniProt O94804)
[11] = target: T2, Serine/threonine-protein kinase ULK3 (Mus musculus, UniProt Q3U3Q1)
T2 sequence (Q3U3Q1 whole entry): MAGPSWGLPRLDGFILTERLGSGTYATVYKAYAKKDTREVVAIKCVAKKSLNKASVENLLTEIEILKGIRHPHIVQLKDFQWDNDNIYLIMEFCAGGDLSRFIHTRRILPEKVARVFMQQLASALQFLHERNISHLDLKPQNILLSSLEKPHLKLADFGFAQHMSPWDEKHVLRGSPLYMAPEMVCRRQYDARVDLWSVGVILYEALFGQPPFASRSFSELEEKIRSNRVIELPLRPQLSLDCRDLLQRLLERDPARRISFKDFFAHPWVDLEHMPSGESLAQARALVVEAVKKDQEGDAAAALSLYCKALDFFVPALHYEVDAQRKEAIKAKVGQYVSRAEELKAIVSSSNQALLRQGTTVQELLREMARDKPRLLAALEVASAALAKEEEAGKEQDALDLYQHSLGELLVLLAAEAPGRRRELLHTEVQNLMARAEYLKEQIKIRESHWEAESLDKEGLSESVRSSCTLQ

Ephrin type-A receptor 6 = target: T3, Ephrin type-A receptor 6 (Homo sapiens, UniProt Q9UF33)
T3 sequence (Q9UF33 whole entry): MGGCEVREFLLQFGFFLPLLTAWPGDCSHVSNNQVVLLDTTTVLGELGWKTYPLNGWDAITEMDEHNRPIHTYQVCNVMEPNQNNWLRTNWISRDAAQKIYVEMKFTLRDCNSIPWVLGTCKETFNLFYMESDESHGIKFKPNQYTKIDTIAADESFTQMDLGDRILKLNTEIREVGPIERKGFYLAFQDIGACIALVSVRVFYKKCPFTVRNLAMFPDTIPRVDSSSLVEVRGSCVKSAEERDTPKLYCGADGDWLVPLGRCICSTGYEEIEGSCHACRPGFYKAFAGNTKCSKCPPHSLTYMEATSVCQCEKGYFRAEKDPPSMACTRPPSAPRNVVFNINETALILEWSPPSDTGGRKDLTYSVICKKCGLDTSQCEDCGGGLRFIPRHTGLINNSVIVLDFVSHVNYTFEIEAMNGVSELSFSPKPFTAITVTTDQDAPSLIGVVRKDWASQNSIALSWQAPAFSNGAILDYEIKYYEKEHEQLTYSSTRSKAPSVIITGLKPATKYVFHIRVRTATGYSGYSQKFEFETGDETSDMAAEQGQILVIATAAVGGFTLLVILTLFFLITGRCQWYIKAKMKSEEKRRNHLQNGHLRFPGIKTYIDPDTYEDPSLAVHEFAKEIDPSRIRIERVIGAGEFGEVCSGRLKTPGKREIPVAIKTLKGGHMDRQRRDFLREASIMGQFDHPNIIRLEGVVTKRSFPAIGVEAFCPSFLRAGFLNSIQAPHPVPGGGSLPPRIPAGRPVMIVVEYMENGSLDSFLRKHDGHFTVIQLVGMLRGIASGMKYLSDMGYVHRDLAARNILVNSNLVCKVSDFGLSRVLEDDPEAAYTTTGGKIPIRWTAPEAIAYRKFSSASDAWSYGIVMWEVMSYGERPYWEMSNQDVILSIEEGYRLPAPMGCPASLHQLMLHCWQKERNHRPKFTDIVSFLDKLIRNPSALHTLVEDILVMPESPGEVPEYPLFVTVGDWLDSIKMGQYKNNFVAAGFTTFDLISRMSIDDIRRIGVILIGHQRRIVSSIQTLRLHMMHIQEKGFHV

[12] = target: AP2-associated protein kinase 1 (Homo sapiens, UniProt Q2M2I8)
Chain of AP2-associated protein kinase 1 (Q2M2I8 whole entry): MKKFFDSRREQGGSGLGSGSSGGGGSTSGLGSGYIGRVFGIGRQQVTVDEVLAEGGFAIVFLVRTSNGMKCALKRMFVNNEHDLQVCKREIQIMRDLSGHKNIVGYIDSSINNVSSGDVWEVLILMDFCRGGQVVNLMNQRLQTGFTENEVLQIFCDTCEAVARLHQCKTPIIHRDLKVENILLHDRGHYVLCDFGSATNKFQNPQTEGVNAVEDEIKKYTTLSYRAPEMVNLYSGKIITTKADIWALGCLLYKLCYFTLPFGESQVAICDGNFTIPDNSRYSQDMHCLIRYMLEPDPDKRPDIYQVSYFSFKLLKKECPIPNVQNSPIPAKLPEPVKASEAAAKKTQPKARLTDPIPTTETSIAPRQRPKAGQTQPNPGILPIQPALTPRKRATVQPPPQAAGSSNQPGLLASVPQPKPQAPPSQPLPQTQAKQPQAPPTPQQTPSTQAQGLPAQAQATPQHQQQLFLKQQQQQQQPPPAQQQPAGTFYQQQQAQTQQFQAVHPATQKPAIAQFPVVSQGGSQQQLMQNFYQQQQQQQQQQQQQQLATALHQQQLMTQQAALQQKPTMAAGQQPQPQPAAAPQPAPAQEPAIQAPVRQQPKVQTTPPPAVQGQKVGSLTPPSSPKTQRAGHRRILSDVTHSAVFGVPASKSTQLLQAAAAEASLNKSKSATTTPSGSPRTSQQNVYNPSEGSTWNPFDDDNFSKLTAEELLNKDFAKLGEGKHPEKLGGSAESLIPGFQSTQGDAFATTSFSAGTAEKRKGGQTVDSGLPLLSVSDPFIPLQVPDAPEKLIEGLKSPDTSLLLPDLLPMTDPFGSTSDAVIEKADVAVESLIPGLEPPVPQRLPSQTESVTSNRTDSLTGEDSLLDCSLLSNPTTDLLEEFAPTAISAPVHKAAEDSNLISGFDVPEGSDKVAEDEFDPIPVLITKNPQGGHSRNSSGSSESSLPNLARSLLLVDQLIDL

Measured: Kd

Chain of Mitogen-activated protein kinase 11 (Q15759 whole entry): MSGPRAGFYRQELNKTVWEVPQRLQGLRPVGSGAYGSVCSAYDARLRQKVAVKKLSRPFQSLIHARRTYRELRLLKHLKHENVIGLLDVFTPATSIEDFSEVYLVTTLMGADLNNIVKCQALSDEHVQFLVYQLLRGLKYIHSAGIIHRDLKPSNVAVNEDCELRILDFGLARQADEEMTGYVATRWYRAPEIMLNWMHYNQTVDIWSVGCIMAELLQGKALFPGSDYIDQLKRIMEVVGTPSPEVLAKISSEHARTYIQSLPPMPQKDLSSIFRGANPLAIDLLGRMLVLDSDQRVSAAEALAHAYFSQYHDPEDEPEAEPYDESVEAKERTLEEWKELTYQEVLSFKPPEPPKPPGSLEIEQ

C#Cc1cccc(Nc2ncnc3cc(OCCOC)c(OCCOC)cc23)c1 [ERLOTINIB]
not listed: [10] | [11] | Ephrin type-A receptor 6 | [12]
Not Active: all other assays above

Cc1ccc(NC(=O)c2ccc(CN3CCN(C)CC3)cc2)cc1Nc1nccc(-c2cccnc2)n1 [IMATINIB]
not listed: [6] | [8]
Not Active: all other assays above

O=c1ncn2nc(Sc3ccc(F)cc3F)ccc2c1-c1c(Cl)cccc1Cl [NEFLAMAPIMOD]
not listed: [1]
Not Active: all other assays above

CCOc1cc2ncc(C#N)c(Nc3ccc(F)c(Cl)c3)c2cc1NC(=O)/C=C/CN(C)C [PELITINIB]
Not Active: [1] | [3] | Insulin receptor | [5] | [7] | [9]

Oc1ccc(-c2nc(-c3ccc(F)cc3)c(-c3ccncc3)[nH]2)cc1 [SB-202190]
not listed: [1]
Not Active: all other assays above

C[S+]([O-])c1ccc(-c2nc(-c3ccc(F)cc3)c(-c3ccncc3)[nH]2)cc1 (centres undefined) [SB-203580]
not listed: [1]
Not Active: all other assays above

CC[C@H](CO)Nc1nc(NCc2ccccc2)c2ncn(C(C)C)c2n1 [SELICICLIB]
Not Active: all assays above

Oc1c2ccccc2c2c3c(cccc13)N=N2 [SP-600125]
not listed: [2] | [4] | [11] | [12]
Not Active: all other assays above

COc1cc2c(N3CCN(C(=O)Nc4ccc(OC(C)C)cc4)CC3)ncnc2cc1OCCCN1CCCCC1 [TANDUTINIB]
not listed: [6]
Not Active: all other assays above
